ChEMBL document CHEMBL1128759, “Inhibition of interleukin-1 converting enzyme by N-acyl-aspartyl aryloxymethyl ketones” (Bioorg Med Chem Lett, 1995)

Columns and labels:
Assay type in all cases: cell-based
[1] = target: T1, Caspase-1 (Homo sapiens, UniProt P29466); assay: Inhibition of IL-1 beta converting enzyme (ICE) in human blood monocytes expressed as Ki
T1 sequence (P29466 whole entry): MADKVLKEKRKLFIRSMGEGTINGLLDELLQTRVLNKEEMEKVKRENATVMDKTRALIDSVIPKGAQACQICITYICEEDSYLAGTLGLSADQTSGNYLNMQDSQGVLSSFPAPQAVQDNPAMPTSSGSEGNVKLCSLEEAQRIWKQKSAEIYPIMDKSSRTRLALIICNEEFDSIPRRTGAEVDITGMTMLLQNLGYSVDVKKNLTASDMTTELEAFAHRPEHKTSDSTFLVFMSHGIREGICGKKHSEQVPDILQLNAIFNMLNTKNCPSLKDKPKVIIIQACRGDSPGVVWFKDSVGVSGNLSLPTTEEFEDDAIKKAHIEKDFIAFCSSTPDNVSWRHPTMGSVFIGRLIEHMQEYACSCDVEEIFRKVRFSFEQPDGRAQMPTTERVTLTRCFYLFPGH

[2] = target: T2, Caspase-1 (Homo sapiens) (UniProt P29466); assay: Inhibition of IL-1 beta converting enzyme (ICE) in human blood monocytes expressed as Kon
T2 sequence (whole entry): T1 sequence (P29466 whole entry)

[3] = target: T2, Caspase-1 (Homo sapiens); assay: Compound was tested for inhibition of IL-1 beta converting enzyme (ICE) in human blood monocytes expressed as Ki

SMILES | Ki [1] [µM] | k on [2] [M⁻¹ s⁻¹] | k on [3] [M⁻¹ s⁻¹]
C=CCOC(=O)NC(CC(=O)O)C(=O)COc1ccc2ccccc2c1 (centres undefined) | 4 | – | –
C=CCOC(=O)NC(CC(=O)O)C(=O)COc1c(C(N)=O)ccc2ccccc12 (centres undefined) | > 22 | – | –
C=CCOC(=O)NC(CC(=O)O)C(=O)COc1cc2ccccc2cc1C(=O)N(C)C (centres undefined) | > 28 | – | –
CC(C)[C@H](NC(=O)OCc1ccccc1)C(=O)N[C@@H](C)C(=O)N[C@@H](CC(=O)O)C(=O)COc1ccccc1 | 4.9 | 1.1 | –
CC(C)[C@H](NC(=O)OCc1ccccc1)C(=O)N[C@@H](C)C(=O)N[C@@H](CC(=O)O)C(=O)COc1cc2ccccc2cc1C(N)=O | 1.7 | 430000 | –
C=CCOC(=O)NC(CC(=O)O)C(=O)COc1cc2ccccc2cc1C(N)=O (centres undefined) | 0.32 | 5600 | –
C=CCOC(=O)NC(CC(=O)O)C(=O)COc1cc2ccccc2cc1C(=O)Nc1ccccc1 (centres undefined) | – | 4100 | –
C=CCOC(=O)N[C@@H](CC(=O)O)C(=O)CCc1cc2ccccc2cc1-c1ncc[nH]1 | > 100 | – | –
C=CCOC(=O)NC(CC(=O)O)C(=O)COc1cc(-c2ccccc2)ccc1C(N)=O (centres undefined) | 2 | – | –
C=CCOC(=O)NC(CC(=O)O)C(=O)COc1ccc(-c2ccccc2)cc1C(N)=O (centres undefined) | – | – | 3400
C=CCOC(=O)NC(CC(=O)O)C(=O)COc1ccc2ccccc2c1C(N)=O (centres undefined) | > 18 | – | –
C=CCOC(=O)NC(CC(=O)O)C(=O)COc1ccccc1 (centres undefined) | 2.7 | – | –
C=CCOC(=O)NC(CC(=O)O)C(=O)COc1cc2ccccc2cc1C#N (centres undefined) | – | 4500 | –
C=CCOC(=O)N[C@@H](CC(=O)O)C(=O)COc1cc2ccccc2cc1-c1ncc[nH]1 | 0.09 | 12000 | –
C=CCOC(=O)NC(CC(=O)O)C(=O)COc1ccccc1C(N)=O (centres undefined) | 3.8 | – | –
